The results in this text go back to patent publication US20180303807A1, “ANDROGEN RECEPTOR LIGANDS” (DUKE UNIVERSITY, priority 2015, published 2018).

The structures appear in SMILES notation. Positions count from the first letter of the chain named.

The target in test [1] is T1, AR (Homo sapiens, UniProt P10275, T878A).
T1 construct: endogenous in cells; host or cells: LNCaP cells
T1 sequence (P10275 1-920 T878A): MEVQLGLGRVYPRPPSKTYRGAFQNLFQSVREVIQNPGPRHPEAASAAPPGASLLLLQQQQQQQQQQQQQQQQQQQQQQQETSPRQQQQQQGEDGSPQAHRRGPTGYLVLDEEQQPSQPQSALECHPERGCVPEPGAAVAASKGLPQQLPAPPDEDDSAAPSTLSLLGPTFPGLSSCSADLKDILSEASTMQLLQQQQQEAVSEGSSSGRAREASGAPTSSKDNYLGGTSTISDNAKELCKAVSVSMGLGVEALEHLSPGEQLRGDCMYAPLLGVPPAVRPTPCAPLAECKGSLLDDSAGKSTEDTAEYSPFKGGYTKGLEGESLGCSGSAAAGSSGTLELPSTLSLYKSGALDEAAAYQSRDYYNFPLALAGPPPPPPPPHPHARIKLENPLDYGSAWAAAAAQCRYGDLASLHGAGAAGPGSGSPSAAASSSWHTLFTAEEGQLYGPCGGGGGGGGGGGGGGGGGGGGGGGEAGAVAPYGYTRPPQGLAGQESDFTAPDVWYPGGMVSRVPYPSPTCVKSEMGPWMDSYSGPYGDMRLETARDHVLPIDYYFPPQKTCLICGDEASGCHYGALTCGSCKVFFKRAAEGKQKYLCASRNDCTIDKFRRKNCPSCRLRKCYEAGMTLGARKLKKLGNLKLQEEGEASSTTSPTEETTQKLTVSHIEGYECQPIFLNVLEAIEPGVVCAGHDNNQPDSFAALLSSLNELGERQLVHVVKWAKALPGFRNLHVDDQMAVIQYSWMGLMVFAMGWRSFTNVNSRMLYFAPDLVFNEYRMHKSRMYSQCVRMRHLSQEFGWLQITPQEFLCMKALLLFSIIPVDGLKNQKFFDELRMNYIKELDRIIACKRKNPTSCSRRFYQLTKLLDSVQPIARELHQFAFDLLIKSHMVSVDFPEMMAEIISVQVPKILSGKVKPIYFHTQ
The test can be described thus: In Cell Western AR degradation assay in LNCaP cells. It counts as cell-based. The note with it: 18 hrs, greater than 50% degradation at 10 μM (method says 20 μM). The protocol:
In Cell Western (AR degradation Assay, Table 2, B10). LNCaP cells were plated in 96-well clear bottom black plates (20K cells/well) in RPMI supplemented with 8% CFS. Following 48 hr incubation, cells were treated with hormone (20 μM test compound) for 18 hrs. Cells were fixed with formaldehyde (3.7%) and permeabilized using PBS (0.1% TRITON X-100). Cells were incubated with anti-AR antibody (N20, 1:2000), washed with PBS (0.1% Tween), and stained with 2nd antibody (Biotium CF770 goat anti-rabbit, 1:2000). AR protein expression was assessed using the LI-COR Odyssey imaging system. DRAQ5 (DNA stain, 1:10,000, Thermo Scientific) was used to normalize AR protein expression.
For B4-B7, scoring system is based on the relative AR target gene agonist/antagonist activity of test compounds when compared to benchmark compounds enzalutamide or bicalutamide. […] The lack of agonist activity is desirable for therapies intended to treat CRPC. For B4 and B6, a score of 1 indicates less agonism (highly desired activity) than benchmark compound enzalutamide, a score of 2 indicates equal agonism to enzalutamide (desirable), a score of 3 indicates agonism between enzalutamide and bicalutamide (less desirable activity), a score of 4 indicates equal agonism to bicalutamide (liability), and a score of 5 indicates higher agonism than bicalutamide (liability). For B5 and B7 a score of 1 indicates higher antagonist efficacy (highly desired activity) than benchmark compound enzalutamide, a score of 2 indicates equal antagonist efficacy to enzalutamide (desirable), a score of 3 indicates antagonist efficacy between enzalutamide and bicalutamide (less desirable activity), a score of 4 indicates antagonist efficacy equal to bicalutamide (liability), and a score of 5 indicates antagonist efficacy worse than bicalutamide (liability) For B9, Compounds that degrade AR (greater than 50% degradation at 10 μM) are indicated.

The target of test [2] is T2, AR (Homo sapiens, UniProt P10275).
T2 construct: expressed in transfected cells; host or cells: CV1 cells
T2 sequence (P10275 1-920): T1 sequence (P10275 1-920 T878A) with A878T
The test can be described thus: Reporter gene assay, AR transcriptional (MMTV-Luc) in CV1 cells. The format is cell-based. The following applies: pcDNA-AR + MMTV-Luc, 0.1 nM R1881 plus test compound, 24 hrs, read-out: B1 = AR transcriptional IC50 (μM) in CV1 cells. An outline of the steps: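 CV1 cells transiently co-transfected with human AR, MMTV-Luc reporter and Renilla-Luc (transfection efficiency and toxicity read-out), then stimulated 24 h with 0.1 nM R1881 plus increasing test compound concentrations. Firefly and Renilla luciferase quantified by dual-luciferase assay; IC50 derived from concentration-response.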
Background: Reporter assays use an easily measured gene product as a stand-in for the process of interest.

Usually IC50 stands for the concentration needed to halve the response being measured. In the case of `Cc1ccsc1C1C2=C(CC(C)(C)CC2=O)Nc2cc(N3CCCC3)ccc21` (stereo not drawn) [Compound A116], the “B9 = AR degradation in LNCaP cells (In-Cell Western)” value (“B9 = AR degradation in LNCaP cells” for short) in test [1] was “Degrader (Compounds that degrade AR (greater than 50% degradation at 10 μM) are indicated)”. In addition, the IC50 in test [2] is > 10 µM.
For the compound `CC1(C)CC(=O)C2=C(C1)Nc1ccc3c(c1C2c1ccc(Cl)s1)OCO3` (stereo not drawn) [Compound A107], the “B9 = AR degradation in LNCaP cells” value in test [1] is on record as “Degrader (Compounds that degrade AR (greater than 50% degradation at 10 μM) are indicated)”. The IC50 in test [2] stood at 0.9 µM.
On the same counts, the results for `CC1(C)CC(=O)C2=C(C1)Nc1ccc3ccccc3c1C2c1ccc([N+](=O)[O-])cc1` (stereo not drawn) [Compound A51, 9,9-dimethyl-12-(4-nitrophenyl)-8,9,10,12-tetrahydrobenzo[a]acridin-11(7H)-one] are “Degrader (Compounds that degrade AR (greater than 50% degradation at 10 μM) are indicated)” and 1.2 µM.
The like results for `CC1(C)CC(=O)C2=C(C1)Nc1ccc3ncccc3c1C2c1ccc(Cl)s1` (stereo not drawn) [Compound A64] were, in that order, “Degrader (Compounds that degrade AR (greater than 50% degradation at 10 μM) are indicated)” and 1.9 µM.
`CC1(C)CC(=O)C2=C(C1)Nc1ccc3cn[nH]c3c1C2c1ccc(Br)s1` (stereo not drawn) [Compound A110]: the “B9 = AR degradation in LNCaP cells” value in test [1] is on record as “Degrader (Compounds that degrade AR (greater than 50% degradation at 10 μM) are indicated)”. Also, the IC50 in test [2] was > 10 µM.
On the same counts, the results for `CC1(C)CC(=O)C2=C(C1)Nc1ccc3ncccc3c1C2c1nccs1` (stereo not drawn) [Compound A67] are “Degrader (Compounds that degrade AR (greater than 50% degradation at 10 μM) are indicated)” and > 10 µM.
With `Cc1nc2ccc3c(c2nc1C)C(c1ccc(F)c(F)c1)C1=C(CC(C)(C)CC1=O)N3` (racemic) [Compound A84, (±)-12-(3,4-difluorophenyl)-2,3,9,9-tetramethyl-8,9,10,12-tetrahydropyrazino[2,3-a]acridin-11(7H)-one], in test [1], the “B9 = AR degradation in LNCaP cells” value is listed as “Degrader (Compounds that degrade AR (greater than 50% degradation at 10 μM) are indicated)”. Further, in test [2], the IC50 worked out at 55 µM.
For `CC1(C)CC(=O)C2=C(C1)Nc1ccc3ncccc3c1C2c1cc(Br)c(Br)s1` (stereo not drawn) [Compound A76], in test [1], the “B9 = AR degradation in LNCaP cells” value was “Degrader (Compounds that degrade AR (greater than 50% degradation at 10 μM) are indicated)”. Also, in test [2], the IC50 was 2.2 µM.
With `CC1(C)CC(=O)C2=C(C1)Nc1ccc3cccnc3c1C2c1ccc(F)c(F)c1` (racemic) [Compound A96, (±)-12-(3,4-difluorophenyl)-9,9-dimethyl-8,9,10,12-tetrahydrobenzo[j][1,7]phenanthrolin-11(7H)-one], the “B9 = AR degradation in LNCaP cells” value in test [1] is “Degrader (Compounds that degrade AR (greater than 50% degradation at 10 μM) are indicated)”. Also, in test [2], the IC50 turned out to be 0.8 µM.
The like results for `CC1(C)CC(=O)C2=C(C1)Nc1ccc3ncccc3c1C2c1ccc(Cl)cc1Cl` (racemic) [Compound A88, (±)-12-(2,4-dichlorophenyl)-9,9-dimethyl-8,9,10,12-tetrahydrobenzo[b][4,7]phenanthrolin-11(7H)-one] were, in that order, “Degrader (Compounds that degrade AR (greater than 50% degradation at 10 μM) are indicated)” and 1.1 µM.
On the same counts, the results for `Cn1ncc2ccc3c(c21)C(c1ccc(F)c(F)c1)C1=C(CC(C)(C)CC1=O)N3` (stereo not drawn) [Compound A78] are “Degrader (Compounds that degrade AR (greater than 50% degradation at 10 μM) are indicated)” and > 10 µM.
Consider `CC1(C)CC(=O)C2=C(C1)Nc1cc(N3CCCC3)ccc1C2c1ccc(Cl)s1` (racemic) [Compound A97, (±)-9-(5-chlorothiophen-2-yl)-3,3-dimethyl-6-(pyrrolidin-1-yl)-3,4,9,10-tetrahydroacridin-1(2H)-one], for which the “B9 = AR degradation in LNCaP cells” value in test [1] is recorded as “Degrader (Compounds that degrade AR (greater than 50% degradation at 10 μM) are indicated)”. Further, the IC50 in test [2] is > 10 µM.
